From patent US4596890A, “Benzoylureas, and their production and use” (priority 1983, dated 1986)
≈ marks a conversion by molar mass, not a printed value. Where two headings read alike, the source gives them in different places.

What was measured:
Assay type in all cases: in vivo
[1] = test system: tobacco cutworm (Spodoptera litura); test: Test Example 2: insecticidal test on tobacco cutworm fourth larvae, artificial diet; details: 144 h
Protocol: (§1) Anyone of Compound Nos. 1 to 12 (10 parts), polyoxyethylene styrylphenyl ether (14 parts), calcium dodecylbenzenesulfonate (6 parts), xylene (35 parts) and dimethylformamide (35 parts) are mixed well to make an emulsifiable concentrate preparation.
An emulsifiable concentrate preparation formulated as in Formulation Example 2 was diluted with water to make a designed dilution of the test compound. An artificial diet (13 g) for tobacco cutworm (Spodoptera litura) was impregnated with said dilution (2 ml) and placed into a polyethylene-made cup of 11 cm in diameter. Fourth larvae (10 insects) of tobacco cutworm were released therein. Six days thereafter, observation was made to determine the number of death, and the LC50 value (i.e. lethal concentration to 50% death) was calculated therefrom (two replications).

[2] = test system: common mosquito (Culex pipiens pallens); test: Test Example 1: emergence of common mosquito from last instar larvae; details: 3.5 ppm in water; twenty last instar larvae; feeding up to emergence; two replications
Protocol: as §1
An emulsifiable concentrate preparation formulated as in Formulation Example 2 was diluted with water to make a dilution containing the test compound in a concentration of 3.5 ppm. The dilution (100 ml) was charged in a plastic cup of 180 ml volume, and twenty last instar larvae of common mosquito (Culex pipiens pallens) were released therein. Feeding was continued up to emergence, and the rate of emergence was observed (two replications).

[3] = test system: housefly (Musca domestica); test: Test Example 4: emergence of housefly from nits reared on treated artificial culture; details: 10 ppm dilution (10,000 fold, 28 ml) in artificial culture; fifty nits, cultivated until pupation
Protocol: as §1
Powdered animal feed (2 g) was thoroughly mixed with bran (14 g). An emulsifiable concentrate preparation formulated as in Formulation Example 2 was diluted with water to make a 10,000 fold dilution (corresponding to 10 ppm; 28 ml) and added to the above mixture. The resultant mixture was stirred well to make an artificial culture for housefly. Fifty nits of housefly (Musca domestica) were cultivated therein until their pupation. The obtained pupae were placed into a plastic cup, and the rate of emergence was observed.

[4] = test system: rice stem borer (Chilo suppressalis); test: Test Example 3: insecticidal test on rice stem borer ten-day old larvae, artificial diet; details: 192 h, eight days, two replications
Protocol: as §1
An emulsifiable concentrate preparation formulated as in Formulation Example 2 was diluted with water to make a designed dilution of the test compound. Five grams of artificial diet placed into a polyethylene-made cup of 5.5 cm in diameter was impregnated with said dilution (1 ml). Ten-day old larvae (10 insects) of rice stem borer (Chilo suppressalis) were released therein. Eight days thereafter, observation was made to determine the number of death, and the LC50 value was calculated therefrom (two replications).

[5] = lethal concentration to 50% death, fourth larvae, artificial diet, six days, two replications, read-out: LC50

SMILES | LC50 [1] [µg/mL] | LC50 [1, 5] [µg/mL] | Rate of emergence [2] [%] | Rate of emergence [3] [%] | LC50 [4] [µg/mL]
O=C(NC(=O)c1c(F)cccc1F)Nc1ccc(Cl)cc1 [A, Diflubenzuron, reference compound] | 4.4 (≈ 14.2 µM) | – | – | – | –
CNC(=O)ON=C(C)SC [B, Methomyl, reference compound] | 8 (≈ 49.3 µM) | – | – | – | –
O=C(NC(=O)c1c(F)cccc1F)Nc1ccc(Oc2cc(Cl)cc(Cl)c2)cc1 [C, 3-(2,6-difluorobenzoyl)-1-[4-(3,5-dichlorophenoxy)phenyl]urea, reference compound] | – | 6.5 (≈ 14.9 µM) | – | – | –
Cc1cc(NC(=O)NC(=O)c2c(F)cccc2F)cc(C)c1Oc1cc(F)cc(F)c1 [Compound 1, N-2,6-difluorobenzoyl-N'-4-(3,5-difluorophenoxy)-3,5-dimethylphenylurea] | – | 0.5 (≈ 1.16 µM) | 0 | 2 | –
O=C(NC(=O)c1c(F)cccc1F)Nc1cc(Cl)c(Oc2cc(F)cc(F)c2)c(Cl)c1 [Compound 2, N-2,6-difluorobenzoyl-N'-4-(3,5-difluorophenoxy)-3,5-dichlorophenylurea] | – | 2.5 (≈ 5.28 µM) | 0 | 0 | 12 (≈ 25.4 µM)
O=C(NC(=O)c1c(F)cccc1F)Nc1cc(Cl)c(Oc2c(F)c(F)c(F)c(F)c2F)c(Cl)c1 [Compound 3] | – | 2.3 (≈ 4.36 µM) | 0 | 0 | –
Cc1cc(NC(=O)NC(=O)c2ccccc2Cl)cc(C)c1Oc1cc(F)cc(F)c1 [Compound 4] | – | 1.5 (≈ 3.48 µM) | 0 | – | 10 (≈ 23.2 µM)
O=C(NC(=O)c1ccccc1Cl)Nc1cc(Cl)c(Oc2cc(F)cc(F)c2)c(Cl)c1 [Compound 5] | – | – | 0 | – | –
O=C(NC(=O)c1ccccc1Cl)Nc1cc(Cl)c(Oc2c(F)c(F)c(F)c(F)c2F)c(Cl)c1 [Compound 6] | – | 2.7 (≈ 5.14 µM) | 0 | 0 | –
O=C(NC(=O)c1ccccc1Cl)Nc1cc(Cl)c(Oc2c(Cl)c(Cl)c(Cl)c(Cl)c2Cl)c(Cl)c1 [Compound 7] | – | – | 0 | – | –
O=C(NC(=O)c1c(F)cccc1F)Nc1cc(Cl)c(Oc2c(Cl)c(Cl)c(Cl)c(Cl)c2Cl)c(Cl)c1 [Compound 8] | – | – | 0 | – | 15 (≈ 24.6 µM)
Cc1cc(NC(=O)NC(=O)c2c(F)cccc2F)cc(C)c1Oc1c(F)c(F)c(F)c(F)c1F [Compound 9] | – | 0.64 (≈ 1.32 µM) | 0 | – | –
Cc1cc(NC(=O)NC(=O)c2ccccc2Cl)cc(C)c1Oc1c(F)c(F)c(F)c(F)c1F [Compound 10] | – | 1.2 (≈ 2.48 µM) | 0 | – | –
Cc1cc(NC(=O)NC(=O)c2c(F)cccc2Cl)cc(C)c1Oc1cc(F)cc(F)c1 [Compound 11] | – | 1.6 (≈ 3.56 µM) | 0 | – | –
Cc1cc(NC(=O)NC(=O)c2c(F)cccc2Cl)cc(C)c1Oc1c(F)c(F)c(F)c(F)c1F [Compound 12] | – | – | 0 | – | –
